Assay results from the CheMixHub viscosity set.

Test: xn = mol fraction of the nth substance listed

COCC(C)O (configuration not stated) + CCO
viscosity [mPa·s], 101.33 kPa
Settings | 298.15 K | 308.15 K | 318.15 K
x1 = 0.0501 | 1.128 | 0.933 | 0.779
x1 = 0.1 | 1.174 | 0.964 | 0.801
x1 = 0.15 | 1.215 | 0.994 | 0.822
x1 = 0.2 | 1.253 | 1.025 | 0.846
x1 = 0.25 | 1.297 | 1.055 | 0.866
x1 = 0.3003 | 1.333 | 1.081 | 0.887
x1 = 0.35 | 1.369 | 1.111 | 0.909
x1 = 0.3999 | 1.405 | 1.138 | 0.928
x1 = 0.45 | 1.44 | 1.163 | 0.947
x1 = 0.5 | 1.477 | 1.188 | 0.964
x1 = 0.5498 | 1.508 | 1.211 | 0.979
x1 = 0.5998 | 1.537 | 1.23 | 0.991
x1 = 0.6498 | 1.564 | 1.245 | 1.004
x1 = 0.7 | 1.589 | 1.263 | 1.017
x1 = 0.75 | 1.61 | 1.275 | 1.029
x1 = 0.8002 | 1.629 | 1.289 | 1.038
x1 = 0.8498 | 1.647 | 1.3 | 1.048
x1 = 0.8999 | 1.665 | 1.308 | 1.058
x1 = 0.9499 | 1.677 | 1.318 | 1.068

ClC(Cl)=C(Cl)Cl + C1CCOC1
303.15 K, 101 kPa
Settings | viscosity [mPa·s]
x2 = 0.0667 | 0.7821
x2 = 0.1429 | 0.763
x2 = 0.2457 | 0.7362
x2 = 0.3692 | 0.7008
x2 = 0.4384 | 0.6795
x2 = 0.5309 | 0.6487
x2 = 0.6897 | 0.5914
x2 = 0.7605 | 0.5641
x2 = 0.8435 | 0.5312
x2 = 0.9213 | 0.4988

CCI + CCOC(C)=O
Settings | viscosity [mPa·s]
298.15 K, 101 kPa, x2 = 0.7859 | 0.462

O=[N+]([O-])c1ccccc1 + C1CCCCC1
viscosity [mPa·s]
Settings | 298.15 K | 303.15 K | 308.15 K | 313.15 K
101 kPa, x2 = 0.1079 | – | 1.461 | – | –
101 kPa, x2 = 0.2065 | – | 1.325 | – | –
101 kPa, x2 = 0.49 | – | 1.036 | – | –
101 kPa, x2 = 0.5924 | – | 0.9727 | – | –
101 kPa, x2 = 0.701 | – | 0.9147 | – | –
101 kPa, x2 = 0.8319 | – | 0.844 | – | –
101 kPa, x2 = 0.8998 | – | 0.8149 | – | –
101.3 kPa, x1 = 0.099 | 0.9069 | 0.8365 | 0.7722 | 0.7123
101.3 kPa, x1 = 0.2037 | 0.9519 | 0.8775 | 0.8109 | 0.7485
101.3 kPa, x1 = 0.297 | – | 0.9369 | 0.8638 | 0.7984
101.3 kPa, x1 = 0.3968 | 1.089 | 1 | 0.925 | 0.8553
101.3 kPa, x1 = 0.4968 | 1.16 | 1.067 | – | 0.9115
101.3 kPa, x1 = 0.5973 | 1.247 | 1.153 | 1.065 | 0.9854
101.3 kPa, x1 = 0.6959 | 1.346 | 1.241 | 1.147 | 1.061
101.3 kPa, x1 = 0.8011 | – | 1.367 | 1.264 | 1.167
101.3 kPa, x1 = 0.893 | 1.603 | 1.481 | 1.358 | 1.254
101.3 kPa, x2 = 0.1908 | – | – | 1.385 | –

CCCCCCCCCCCCCC + CCCCCCCC
viscosity [mPa·s]
Settings | x1 = 0.1504 | x1 = 0.3504 | x1 = 0.4999 | x1 = 0.6485 | x1 = 0.8475 | x2 = 0.367 | x2 = 0.635 | x2 = 0.839
293.15 K, 101.33 kPa | – | – | – | – | – | 1.501 | 1.003 | 0.753
303.16 K, 101.3 kPa | 0.6303 | 0.8589 | 1.056 | 1.276 | 1.612 | – | – | –
308.16 K, 101.3 kPa | 0.5925 | 0.8026 | 0.9789 | 1.176 | 1.476 | – | – | –
